Data reported in patent publication US20200262864A1, “DEUTERATED FORMS OF AMINOSTEROLS AND METHODS OF USING THE SAME” (Enterin, Inc., priority 2019, published 2020).

Tests used:
[1] = molecular target: T1, Protein Tyrosine Phosphatase 1B (PTP1B), human truncated form (1-321) (Homo sapiens, UniProt P18031); experiment: Inhibition of PTP1B, 10-dose IC50 mode, fluorescence readout of enzyme activity; type: biochemical; settings: for HILLSLOPE: 10-dose curve
T1 construct: The enzyme was the human truncated form (1-321), recombinantly produced in E. coli; host or cells: E. coli
T1 sequence (P18031 1-321): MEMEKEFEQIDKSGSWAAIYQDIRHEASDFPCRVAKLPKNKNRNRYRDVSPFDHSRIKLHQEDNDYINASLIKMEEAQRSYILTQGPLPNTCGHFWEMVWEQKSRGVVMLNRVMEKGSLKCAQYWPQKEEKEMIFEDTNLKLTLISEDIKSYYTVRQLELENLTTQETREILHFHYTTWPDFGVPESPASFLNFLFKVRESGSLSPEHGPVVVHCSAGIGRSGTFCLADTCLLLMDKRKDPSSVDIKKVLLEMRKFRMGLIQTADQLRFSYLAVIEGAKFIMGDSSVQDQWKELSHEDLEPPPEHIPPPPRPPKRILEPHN
Description: The enzyme was the human truncated form (1-321), recombinantly produced in E. coli. Fluorescence was measured to monitor enzyme activity.

[2] = Pharmacological activity in mice as weight loss agent; type: in vivo
Excerpt: Food was provided ad lib.

[3] = Phase 2 trial of oral squalamine (ENT-01): pharmacokinetics; type: in vivo, human; settings: patients of Example 8
Description: PK data were collected on the 10 patients enrolled in Stage 1 and 10 patients enrolled in Stage 2 to determine the extent of systemic absorption. In Stage 1, PK data were obtained at each visit, pre-medication, at 1, 2, 4, 8 and 24 hours (Table 9). In Stage 2, PK was measured on days 1 and 6 of the randomization period pre-medication, at 1, 2, 4 and 8 hours (Table 10).
The mean Cmax, Tmax and T1/2 and AUC of the squalamine ion following squalamine (ENT-01) oral dosing for Stage 1 patients. The PK analyses are only approximate, as the lower limit of the validated concentration range was 10 ng/ml; most of the measured concentrations fell below that value. The mean Cmax, Tmax and T1/2 and AUC of the squalamine ion following squalamine (ENT-01) oral dosing for Stage 2 patients. The PK analyses are only approximate, as the lower limit of the validated concentration range was 0.5 ng/ml.

[4] = as the dilactate salt; cited from earlier work
[5] = single and repeat intravenous administration, dilactate salt, alone or in combination; cited from earlier work
C. elegans model of PD = settings: cited from earlier work
mouse models of PD = settings: several mouse models of PD; cited from earlier work
[6] = i.p. 10 mg/kg on days 0, 2, 4, 6, 8 and 10, N=3

Compound	HILLSLOPE [1]	% Activity ([1]; Conc 1.00E−04 M)	Slope (signal/min) ([1]; Conc 1.00E−04 M)	% Activity ([1]; Conc 1.11E−05 M)	Slope (signal/min) ([1]; Conc 1.11E−05 M)	Slope (signal/min) ([1]; Conc 1.23E−06 M)	Slope (signal/min) ([1]; Conc 1.37E−07 M)	Slope (signal/min) ([1]; Conc 1.52E−08 M)	Slope (signal/min) ([1]; Conc 3.33E−05 M)	Slope (signal/min) ([1]; Conc 3.70E−06 M)	Slope (signal/min) ([1]; Conc 4.12E−07 M)	Slope (signal/min) ([1]; Conc 4.57E−08 M)	Slope (signal/min) ([1]; Conc 5.08E−09 M)	also measured
[2H]C([2H])([2H])C([2H])(C(CC[C@@H](C)[C@H]1CCC2C3C(CC[C@@]21C)[C@@]1(C)CC[C@H](NCCCNCCCCNCCCN)C[C@@H]1C[C@H]3O)OS(=O)(=O)O)C([2H])([2H])[2H] (some centres unmarked) [Compound D7-1436]	−2.50	−0.37%	−161 signal/min	−0.74%	−319 signal/min	34760 signal/min	40150 signal/min	43819 signal/min	−362 signal/min	8429 signal/min	41755 signal/min	43697 signal/min	44655 signal/min	% Activity ([1]; Conc 1.23E−06 M): 80.63%; % Activity ([1]; Conc 1.37E−07 M): 93.14%; % Activity ([1]; Conc 1.52E−08 M): 101.65%; % Activity ([1]; Conc 3.33E−05 M): −0.84%; % Activity ([1]; Conc 3.70E−06 M): 19.55%; % Activity ([1]; Conc 4.12E−07 M): 96.86%; % Activity ([1]; Conc 4.57E−08 M): 101.36%; % Activity ([1]; Conc 5.08E−09 M): 103.59%; body weight reached ([2]; i.p. 10 mg/kg on days 0, 2, 4, 6, 8 and 10, by day 16, N=3): about 45 % of the starting weight; condition of the animals ([2]; i.p. 10 mg/kg on days 0, 2, 4, 6, 8 and 10, day 16): appeared moribund and were euthanized; potency as compared with MSI-1436 ([2]; weight loss, i.p. 10 mg/kg): increased potency
CC(C)[C@@H](CC[C@@H](C)C1CCC2C3C(CC[C@@]21C)[C@@]1(C)CC[C@H](NCCCNCCCCN)C[C@@H]1C[C@H]3O)OS(=O)(=O)O (stereo partly drawn) [squalamine, 3 beta-N-1-(N-[3-(4-aminobutyl)]-1,3-diaminopropane)-7 alpha,24 zeta-dihydroxy-5 alpha-cholestane 24-sulfate]	–	–	–	–	–	–	–	–	–	–	–	–	–	systemic absorption following oral administration [3]: not significantly absorbed; water solubility [4]: highly water soluble; well tolerated dose [5]: at least 300 mg/m^2; muscle paralysis (C. elegans model of PD): complete reversal; gastrointestinal dysmotility (mouse models of PD): reverse gastrointestinal dysmotility
CC(C)[C@@H](CC[C@@H](C)C1CCC2C3C(CC[C@@]21C)[C@@]1(C)CC[C@H](NCCCNCCCCNCCCN)C[C@@H]1C[C@H]3O)OS(=O)(=O)O (some centres unmarked) [MSI-1436, reference compound]	−2.19	−0.16%	−68 signal/min	0.68%	292 signal/min	37260 signal/min	40137 signal/min	44021 signal/min	−440 signal/min	16431 signal/min	39959 signal/min	42717 signal/min	43513 signal/min	nadir in weight [2, 6]: ~16 days; recovery to starting weight [2, 6]: 45 days
